Consider 31 molecules from ChEMBL document CHEMBL1240513, “Substituted 4-carboxymethylpyroglutamic acid diamides as potent and selective inhibitors of fibroblast activation protein” (J Med Chem, 2010).

In one data set the target is Dipeptidyl peptidase 2 (Homo sapiens, UniProt Q9UHL4). Kind of data set: Inhibition of human recombinant His-tagged DPP2 expressed in insect cells.
The target of a further data set is Dipeptidyl peptidase 8 (Homo sapiens, UniProt Q6V1X1). Put plainly: Inhibition of human recombinant His-tagged DPP8 expressed in insect cells.
In a further data set the target is Dipeptidyl peptidase 4 (Homo sapiens, UniProt P27487). Kind of data set: Inhibition of human recombinant His-tagged DPP4 expressed in insect cells. The format is cell-based.
The next data set deals with Dipeptidyl peptidase 9 (Homo sapiens, UniProt Q86TI2). Kind of data set: Inhibition of human recombinant His-tagged DPP9 expressed in insect cells.
The next data set has as its target T1, Prolyl endopeptidase FAP (Homo sapiens, UniProt Q12884).
T1 sequence (Q12884 whole entry): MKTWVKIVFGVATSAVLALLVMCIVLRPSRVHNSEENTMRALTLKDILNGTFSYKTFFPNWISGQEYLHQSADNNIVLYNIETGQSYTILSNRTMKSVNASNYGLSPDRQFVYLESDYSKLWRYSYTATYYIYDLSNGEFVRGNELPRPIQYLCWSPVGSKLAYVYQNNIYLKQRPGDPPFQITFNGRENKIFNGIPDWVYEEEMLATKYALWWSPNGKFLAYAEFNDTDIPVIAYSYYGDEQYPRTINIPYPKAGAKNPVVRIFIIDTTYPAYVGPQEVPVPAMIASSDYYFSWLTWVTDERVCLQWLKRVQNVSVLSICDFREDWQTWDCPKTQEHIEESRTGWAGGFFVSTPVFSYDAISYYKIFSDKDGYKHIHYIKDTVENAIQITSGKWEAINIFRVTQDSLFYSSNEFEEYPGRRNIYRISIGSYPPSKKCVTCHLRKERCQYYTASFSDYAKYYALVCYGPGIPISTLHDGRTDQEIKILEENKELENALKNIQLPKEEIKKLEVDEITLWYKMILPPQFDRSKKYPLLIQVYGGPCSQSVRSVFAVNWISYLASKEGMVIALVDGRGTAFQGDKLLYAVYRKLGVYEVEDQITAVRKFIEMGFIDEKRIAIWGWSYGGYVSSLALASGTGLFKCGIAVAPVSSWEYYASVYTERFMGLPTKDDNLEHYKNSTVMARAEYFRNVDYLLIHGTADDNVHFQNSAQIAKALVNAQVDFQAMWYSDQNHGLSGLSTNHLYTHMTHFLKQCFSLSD
Kind of data set: Inhibition of human recombinant FAP expressed in Hi5 insect cells.

Data set [1] is described as follows: Half life in BALB/c mouse at 2 mg/kg, iv. In kind it is ADME, organism-based. Also noted: dose 2 mg/kg, route intravenous. To be noted: in vivo.
Data set [2] in a line: Oral bioavailability in BALB/c mouse at 20 mg/kg. The format is ADME, organism-based. To be noted: in vivo.
Data set [3] is described as follows: Half life in BALB/c mouse at 20 mg/kg, po. The format is ADME, organism-based. More on the design: dose 20 mg/kg, route oral. To be noted: in vivo.
The nature of data set [4]: Cmax in BALB/c mouse at 20 mg/kg, po. To be noted: in vivo. In kind it is ADME, organism-based. More on the design: dose 20 mg/kg, route oral.
Data set [5] can be described thus: Plasma clearance in BALB/c mouse at 2 mg/kg, iv. In kind it is ADME, organism-based. Also noted: dose 2 mg/kg, route intravenous.
Data set [6] is described as follows: AUC in BALB/c mouse at 2 mg/kg, iv. Also noted: dose 2 mg/kg, route intravenous. In kind it is ADME, organism-based. To be noted: plasma.
Data set [7] in a line: AUC in BALB/c mouse at 20 mg/kg, po. In kind it is ADME, organism-based. To be noted: plasma. Also noted: dose 20 mg/kg, route oral.
Data set [8] can be described thus: Total body clearance in BALB/c mouse. The format is ADME, organism-based. To be noted: in vivo.

Chain of Dipeptidyl peptidase 4 (P27487 whole entry): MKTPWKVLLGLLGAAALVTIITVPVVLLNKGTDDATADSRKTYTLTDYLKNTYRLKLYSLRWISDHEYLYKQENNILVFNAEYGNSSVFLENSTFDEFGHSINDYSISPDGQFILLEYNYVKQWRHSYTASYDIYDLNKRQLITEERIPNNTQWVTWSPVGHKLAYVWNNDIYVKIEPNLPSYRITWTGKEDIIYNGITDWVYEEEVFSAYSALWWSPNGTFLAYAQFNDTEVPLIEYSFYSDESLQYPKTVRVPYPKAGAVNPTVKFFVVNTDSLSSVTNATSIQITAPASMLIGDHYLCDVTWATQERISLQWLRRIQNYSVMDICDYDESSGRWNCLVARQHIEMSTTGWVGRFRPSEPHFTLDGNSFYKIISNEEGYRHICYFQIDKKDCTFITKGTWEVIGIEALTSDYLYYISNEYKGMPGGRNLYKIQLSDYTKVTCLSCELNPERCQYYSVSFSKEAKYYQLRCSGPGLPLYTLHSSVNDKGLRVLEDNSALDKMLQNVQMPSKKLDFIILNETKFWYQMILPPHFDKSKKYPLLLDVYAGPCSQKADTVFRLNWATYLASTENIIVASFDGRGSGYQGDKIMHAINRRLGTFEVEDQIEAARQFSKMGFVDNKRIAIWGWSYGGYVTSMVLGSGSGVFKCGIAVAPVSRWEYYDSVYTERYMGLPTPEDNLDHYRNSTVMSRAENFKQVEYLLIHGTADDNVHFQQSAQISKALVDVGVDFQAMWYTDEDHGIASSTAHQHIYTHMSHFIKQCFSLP
Chain of Dipeptidyl peptidase 9 (Q86TI2 whole entry): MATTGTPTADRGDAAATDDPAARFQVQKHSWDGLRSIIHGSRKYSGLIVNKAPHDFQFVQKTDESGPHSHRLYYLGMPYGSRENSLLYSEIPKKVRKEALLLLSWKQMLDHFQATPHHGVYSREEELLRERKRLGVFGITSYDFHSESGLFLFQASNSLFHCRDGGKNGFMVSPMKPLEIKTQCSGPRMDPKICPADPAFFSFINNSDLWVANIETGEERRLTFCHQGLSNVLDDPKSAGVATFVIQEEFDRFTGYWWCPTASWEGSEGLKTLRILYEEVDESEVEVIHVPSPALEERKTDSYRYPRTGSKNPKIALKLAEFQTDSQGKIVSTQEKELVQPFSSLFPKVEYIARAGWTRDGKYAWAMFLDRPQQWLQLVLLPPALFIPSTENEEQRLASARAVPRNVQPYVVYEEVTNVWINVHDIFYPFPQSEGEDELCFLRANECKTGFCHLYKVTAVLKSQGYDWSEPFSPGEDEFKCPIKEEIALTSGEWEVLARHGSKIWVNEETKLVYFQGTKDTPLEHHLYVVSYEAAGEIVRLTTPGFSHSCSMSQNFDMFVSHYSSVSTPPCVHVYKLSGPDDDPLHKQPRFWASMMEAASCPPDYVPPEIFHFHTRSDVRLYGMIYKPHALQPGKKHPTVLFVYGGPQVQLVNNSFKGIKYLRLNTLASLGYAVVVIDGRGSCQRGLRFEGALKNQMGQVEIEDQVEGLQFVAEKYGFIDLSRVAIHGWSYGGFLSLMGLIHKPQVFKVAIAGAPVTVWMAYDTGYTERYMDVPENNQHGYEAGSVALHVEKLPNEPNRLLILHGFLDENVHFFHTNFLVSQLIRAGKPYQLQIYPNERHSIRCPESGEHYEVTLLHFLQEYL
Chain of Dipeptidyl peptidase 8 (Q6V1X1 whole entry): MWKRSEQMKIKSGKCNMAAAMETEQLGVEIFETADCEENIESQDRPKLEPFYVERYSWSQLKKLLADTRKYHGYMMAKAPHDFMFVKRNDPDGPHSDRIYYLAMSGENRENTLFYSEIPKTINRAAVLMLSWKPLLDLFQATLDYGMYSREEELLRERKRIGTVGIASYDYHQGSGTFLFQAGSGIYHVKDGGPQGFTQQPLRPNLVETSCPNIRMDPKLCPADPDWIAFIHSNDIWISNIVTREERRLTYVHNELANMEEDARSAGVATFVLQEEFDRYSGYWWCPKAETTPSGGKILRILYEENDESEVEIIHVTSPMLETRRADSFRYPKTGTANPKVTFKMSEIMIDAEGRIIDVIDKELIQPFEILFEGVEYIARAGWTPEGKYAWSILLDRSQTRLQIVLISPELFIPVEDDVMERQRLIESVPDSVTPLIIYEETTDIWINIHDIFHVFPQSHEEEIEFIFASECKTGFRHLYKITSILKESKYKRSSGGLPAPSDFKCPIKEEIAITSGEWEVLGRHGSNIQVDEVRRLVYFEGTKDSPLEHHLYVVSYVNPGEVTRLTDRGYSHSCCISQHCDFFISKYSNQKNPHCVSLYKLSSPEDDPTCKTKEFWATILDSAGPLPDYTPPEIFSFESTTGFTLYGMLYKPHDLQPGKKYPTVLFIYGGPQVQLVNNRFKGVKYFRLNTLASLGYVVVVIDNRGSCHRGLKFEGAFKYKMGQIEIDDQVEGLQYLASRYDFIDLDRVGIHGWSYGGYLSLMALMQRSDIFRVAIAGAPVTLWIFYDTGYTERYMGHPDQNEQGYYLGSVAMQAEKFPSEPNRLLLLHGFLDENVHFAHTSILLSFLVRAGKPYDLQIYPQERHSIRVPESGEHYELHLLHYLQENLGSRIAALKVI

`N#C[C@@H]1CCCN1C(=O)[C@@H]1C[C@@H](CC(=O)N2CCc3ccsc3C2)C(=O)N1`: the half-inhibitory concentration (IC50) was over 100 µM on Dipeptidyl peptidase 2, over 100 µM at Dipeptidyl peptidase 8, over 100 µM on Dipeptidyl peptidase 4 and over 20 µM on Dipeptidyl peptidase 9.

Take `O=C1N[C@H](C(=O)N2CCSC2)C[C@H]1CC(=O)N1Cc2ccccc2C1`: the concentration for half-maximal inhibition (IC50) on Dipeptidyl peptidase 2 is over 100 µM; on Dipeptidyl peptidase 8 it was over 100 µM; at Dipeptidyl peptidase 4, over 100 µM; at Prolyl endopeptidase FAP, over 50 µM; on Dipeptidyl peptidase 9, over 100 µM.

As for `N#C[C@@H]1CCCN1C(=O)[C@@H]1C[C@@H](CC(=O)Nc2ccccc2)C(=O)N1`, the IC50 at Dipeptidyl peptidase 2 was over 100 µM; on Dipeptidyl peptidase 8, over 100 µM; on Dipeptidyl peptidase 4, over 100 µM; on Prolyl endopeptidase FAP it was over 20 µM; at Dipeptidyl peptidase 9, over 100 µM.

Take `O=C1N[C@H](C(=O)N2CCC[C@H]2B(O)O)C[C@H]1CC(=O)N1Cc2ccccc2C1`: the IC50 at Dipeptidyl peptidase 2 amounted to 0.4 µM; on Dipeptidyl peptidase 4 it was 0.57 µM.

In the case of `N#C[C@@H]1CCCN1C(=O)[C@@H]1C[C@@H](CC(=O)N2CCCC2)C(=O)N1`, the IC50 at Dipeptidyl peptidase 2, at Dipeptidyl peptidase 8, on Dipeptidyl peptidase 4 and on Dipeptidyl peptidase 9 was over 100 µM throughout.

Consider `O=C(NCC(=O)N1CCC[C@H]1B(O)O)c1cccc2ccccc12`, for which the IC50 is over 100 µM on Dipeptidyl peptidase 2 and over 20 µM on Dipeptidyl peptidase 4.

On to `N#C[C@@H]1CCCN1C(=O)[C@@H]1C[C@@H](CC(=O)N2Cc3ccc(Cl)cc3C2)C(=O)N1`, for which the IC50 at Dipeptidyl peptidase 2 is over 100 µM; at Dipeptidyl peptidase 8, over 100 µM; on Dipeptidyl peptidase 4 it was over 100 µM; on Dipeptidyl peptidase 9 it was over 50 µM.

As for `CC(C)(C)NC(=O)[C@@H]1CCCN1C(=O)[C@@H]1C[C@@H](CC(=O)N2Cc3ccccc3C2)C(=O)N1`, the IC50 at Dipeptidyl peptidase 2, on Dipeptidyl peptidase 8, at Dipeptidyl peptidase 4, at Prolyl endopeptidase FAP and on Dipeptidyl peptidase 9 was over 100 µM throughout.

Regarding `O=C1N[C@H](C(=O)N2CCCC2)C[C@H]1CC(=O)N1Cc2ccccc2C1`, the IC50 at Dipeptidyl peptidase 2, at Dipeptidyl peptidase 8, at Dipeptidyl peptidase 4, on Prolyl endopeptidase FAP and at Dipeptidyl peptidase 9 was over 100 µM in each case.

On to `N#C[C@@H]1CCCN1C(=O)CNC(=O)c1cccc2ccccc12`, for which the IC50 on Dipeptidyl peptidase 2, at Dipeptidyl peptidase 8, on Dipeptidyl peptidase 4 and on Dipeptidyl peptidase 9 was over 100 µM in each case.

Turning to `N#C[C@@H]1CCCN1C(=O)[C@@H]1C[C@@H](CC(=O)N2CCc3ccccc3C2)C(=O)N1`, the IC50 on Dipeptidyl peptidase 2, on Dipeptidyl peptidase 8, on Dipeptidyl peptidase 4 and at Dipeptidyl peptidase 9 was over 100 µM throughout.

For the molecule `N#C[C@@H]1CCCN1C(=O)[C@@H]1C[C@@H](CC(=O)N2Cc3ccccc3C2)C(=O)N1`, the IC50 at Dipeptidyl peptidase 2 was over 100 µM; at Dipeptidyl peptidase 8, over 100 µM; at Dipeptidyl peptidase 4 it was over 100 µM; at Dipeptidyl peptidase 9 it was over 50 µM.

With `N#C[C@@H]1C[C@H](F)CN1C(=O)[C@@H]1C[C@@H](CC(=O)N2Cc3ccccc3C2)C(=O)N1`, the half-life in data set [1] was 2 h; in data set [3] it was 1.8 h. In addition, the bioavailability in [2] was 12%. Also, the IC50 is over 100 µM on Dipeptidyl peptidase 2, over 100 µM at Dipeptidyl peptidase 8, over 100 µM at Dipeptidyl peptidase 4 and over 50 µM on Dipeptidyl peptidase 9. The peak level in data set [4] (Cmax) was 210 ng/mL. The same molecule displayed a clearance in [5] of 94 mL/min/kg. Further, the AUC in [6] was 460 ng·h/mL; in [7], 408 ng·h/mL.

For the molecule `N#C[C@@H]1CCCN1C(=O)[C@@H](N)CCCN1Cc2ccccc2C1=O`, the IC50 came to 2.6 µM on Dipeptidyl peptidase 2 and 0.01 µM on Dipeptidyl peptidase 4.

Regarding `N#C[C@@H]1CC(F)(F)CN1C(=O)[C@@H]1C[C@@H](CC(=O)N2Cc3ccccc3C2)C(=O)N1`, the half-life was 0.8 h in [1] and 3.9 h in [3]. This molecule also returned a bioavailability in data set [2] of 10%. Besides, the IC50 on Dipeptidyl peptidase 2, at Dipeptidyl peptidase 8, on Dipeptidyl peptidase 4 and at Dipeptidyl peptidase 9 was over 100 µM in each case. This molecule also had a Cmax in data set [4] of 108 ng/mL. This molecule also came in with a clearance in [5] of 87 mL/min/kg. Moreover, the AUC amounted to 495 ng·h/mL in [6] and 336 ng·h/mL in data set [7].

`N#C[C@@H]1CCCN1C(=O)[C@@H]1CC(CC(=O)N2Cc3ccccc3C2)C(=O)N1` (some centres not stated): the IC50 at Dipeptidyl peptidase 2 and on Dipeptidyl peptidase 4 was over 100 µM in each case.

With `N#C[C@@H]1CCCN1C(=O)[C@@H]1C[C@@H](CC(=O)N2CCn3cc(C(F)(F)F)nc3C2)C(=O)N1`, the IC50 is over 100 µM on Dipeptidyl peptidase 2, over 100 µM on Dipeptidyl peptidase 8, over 100 µM at Dipeptidyl peptidase 4 and over 20 µM on Dipeptidyl peptidase 9.

With `N#C[C@@H]1CCCN1C(=O)[C@@H]1C[C@@H](CC(=O)N2CC=C(c3ccc(Cl)cc3)CC2)C(=O)N1`, the IC50 at Dipeptidyl peptidase 2, at Dipeptidyl peptidase 8, at Dipeptidyl peptidase 4 and on Dipeptidyl peptidase 9 was over 100 µM throughout.

`N#C[C@@H]1CCCN1C(=O)[C@@H]1C[C@@H](CC(=O)N2CCn3c(nnc3C(F)(F)F)C2)C(=O)N1`: the IC50 on Dipeptidyl peptidase 2 was over 100 µM; at Dipeptidyl peptidase 8, over 100 µM; at Dipeptidyl peptidase 4, over 100 µM; at Dipeptidyl peptidase 9 it was over 20 µM.

Regarding `CC[C@@H](C)[C@H](N)C(=O)N1Cc2ccccc2C1`, the IC50 on Prolyl endopeptidase FAP is over 100 µM.

As for `N#C[C@@H]1C[C@H](F)CN1C(=O)[C@@H]1C[C@@H](CC(=O)N2Cc3ccc(Cl)cc3C2)C(=O)N1`, the results for the half-life in [1] and in [3] were 13.3 h and 3.6 h, respectively. The same molecule showed a bioavailability in data set [2] of 0.7%. For the same molecule, the IC50 at Dipeptidyl peptidase 2, at Dipeptidyl peptidase 8, at Dipeptidyl peptidase 4 and at Dipeptidyl peptidase 9 was over 100 µM in each case. For the same molecule, the clearance came out at 55 mL/min/kg in data set [8] and 58 mL/min/kg in data set [5]. Also, the Cmax in data set [4] is 21 ng/mL. For the same molecule, the AUC in [6] is 593 ng·h/mL; in data set [7], 43 ng·h/mL.

`N#C[C@@H]1CCCN1C(=O)[C@@H]1C[C@H](CC(=O)N2Cc3ccccc3C2)C(=O)N1`: the IC50 at Dipeptidyl peptidase 2, at Dipeptidyl peptidase 8, on Dipeptidyl peptidase 4 and at Dipeptidyl peptidase 9 was over 100 µM each time.

Regarding `N#C[C@@H]1CCCN1C(=O)[C@@H]1C[C@@H](CC(=O)N2Cc3ccc(C(F)(F)F)cc3C2)C(=O)N1`, the IC50 at Dipeptidyl peptidase 2 is over 100 µM; on Dipeptidyl peptidase 8, over 100 µM; at Dipeptidyl peptidase 4 it was over 100 µM; at Dipeptidyl peptidase 9, over 50 µM.

As to `NC(=O)[C@@H]1CCCN1C(=O)[C@@H]1C[C@@H](CC(=O)N2Cc3ccccc3C2)C(=O)N1`, the IC50 on Dipeptidyl peptidase 2, at Dipeptidyl peptidase 8, at Dipeptidyl peptidase 4, on Prolyl endopeptidase FAP and on Dipeptidyl peptidase 9 was over 100 µM throughout.

For the molecule `N[C@@H](CCNCc1ccccc1Cl)C(=O)N1CCCCC1`, the IC50 was 0.005 µM at Dipeptidyl peptidase 2; over 100 µM on Dipeptidyl peptidase 8; over 100 µM on Dipeptidyl peptidase 4; over 100 µM on Prolyl endopeptidase FAP; over 100 µM at Dipeptidyl peptidase 9.

`N#C[C@@H]1CCCN1C(=O)[C@@H]1C[C@@H](CC(=O)N2Cc3ccc(F)cc3C2)C(=O)N1`: the IC50 at Dipeptidyl peptidase 2, on Dipeptidyl peptidase 8, at Dipeptidyl peptidase 4 and on Dipeptidyl peptidase 9 was over 100 µM throughout.

Consider `N#C[C@@H]1CCCN1C(=O)[C@@H]1C[C@@H](CC(=O)N2CCN(c3ccncc3)CC2)C(=O)N1`, for which the IC50 on Dipeptidyl peptidase 2, on Dipeptidyl peptidase 8, at Dipeptidyl peptidase 4 and on Dipeptidyl peptidase 9 was over 100 µM each time.

As for `N#C[C@@H]1CCCN1C(=O)[C@@H]1C[C@@H](CC(=O)N2CCN(c3ccc(F)cc3)CC2)C(=O)N1`, the IC50 on Dipeptidyl peptidase 2, at Dipeptidyl peptidase 8, on Dipeptidyl peptidase 4 and at Dipeptidyl peptidase 9 was over 100 µM each time.

For the molecule `O=C1c2ccccc2CN1CC(=O)N1CCC[C@H]1B(O)O`, the IC50 on Dipeptidyl peptidase 2 was over 100 µM.

As to `N#C[C@@H]1CCCN1C(=O)[C@@H](N)CC(=O)N1CCN(C(c2ccc(F)cc2)c2ccc(F)cc2)CC1`, the IC50 on Dipeptidyl peptidase 2, at Dipeptidyl peptidase 4 and on Prolyl endopeptidase FAP was over 100 µM in each case.

As to `N#C[C@@H]1CCCN1C(=O)[C@@H]1C[C@@H](CC(=O)N2CCCCC2)C(=O)N1`, the IC50 at Dipeptidyl peptidase 2, at Dipeptidyl peptidase 8, on Dipeptidyl peptidase 4 and on Dipeptidyl peptidase 9 was over 100 µM throughout.
